Experimental data reported in patent publication US9486465B2, “Attractant for bone marrow stem cells and method for attracting bone marrow stem cells” (PIAS CORPORATION, priority 2012, dated 2016).

System: wound with full-thickness skin loss in genetically diabetic db/db mice
Assay: Cell attraction test in vivo of mice: skin regeneration test (wound healing test)
Set-up: species or system mouse
Conditions: 120 μg/mL or 40 μg/mL PBS solution, 20 μL per site dropwise onto wound surface, three times per week for four weeks, FIG. 4
Source text: Cell Attraction Test In Vivo of Mice
In order to evaluate the performance of the attractant for bone marrow stem cells to attract bone marrow stem cells in vivo of mice, living mice were subjected to experiments as follows. When a living mouse is wounded, bone marrow stem cells can accumulate around the wound portion through the bloodstream. Then, the bone marrow stem cells that have accumulated around the wound portion secrete cytokine, or the bone marrow stem cells that have accumulated around the wound portion differentiate into cells of the wound portion, thereby allowing the wound to be healed. Accordingly, it is expected that application of the attractant for bone marrow stem cells to the wound portion causes the bone marrow stem cells to be attracted to the wound portion, thereby accelerating the healing of the wound.
Method of Skin Regeneration Test (Wound Healing Test) […]
A picture of the back was captured three times per week, for four weeks, and the image was loaded into a PC. Thus, the wound area was measured using an image analysis software (product name: Image J). Thereafter, the wound area was measured once a week until about 60 days from the wound creation.

Question: Which “wound area measurement (healing of the wound)” value does the source give for `Oc1cc(O)c2c(c1)O[C@@]1(c3ccc(O)c(O)c3)Oc3cc(O)c4c(c3[C@@H]2[C@H]1O)O[C@H](c1ccc(O)c(O)c1)[C@H](O)[C@H]4c1c(O)cc(O)c2c1O[C@H](c1ccc(O)c(O)c1)[C@H](O)C2` [cinnamtannin B1] here?
Answer: healing of the wound was accelerated
